Tests used:
Format in all cases: binding
[1] = biological target: kinases (KINOMEscan panel) (Homo sapiens, UniProt O75914); conditions: NEW KINOMEscan
[2] = biological target: T1, kinases (KINOMEscan panel) (Homo sapiens, UniProt O76039); conditions: kinase CDKL5; NEW KINOMEscan
T1 sequence (O76039 1-960): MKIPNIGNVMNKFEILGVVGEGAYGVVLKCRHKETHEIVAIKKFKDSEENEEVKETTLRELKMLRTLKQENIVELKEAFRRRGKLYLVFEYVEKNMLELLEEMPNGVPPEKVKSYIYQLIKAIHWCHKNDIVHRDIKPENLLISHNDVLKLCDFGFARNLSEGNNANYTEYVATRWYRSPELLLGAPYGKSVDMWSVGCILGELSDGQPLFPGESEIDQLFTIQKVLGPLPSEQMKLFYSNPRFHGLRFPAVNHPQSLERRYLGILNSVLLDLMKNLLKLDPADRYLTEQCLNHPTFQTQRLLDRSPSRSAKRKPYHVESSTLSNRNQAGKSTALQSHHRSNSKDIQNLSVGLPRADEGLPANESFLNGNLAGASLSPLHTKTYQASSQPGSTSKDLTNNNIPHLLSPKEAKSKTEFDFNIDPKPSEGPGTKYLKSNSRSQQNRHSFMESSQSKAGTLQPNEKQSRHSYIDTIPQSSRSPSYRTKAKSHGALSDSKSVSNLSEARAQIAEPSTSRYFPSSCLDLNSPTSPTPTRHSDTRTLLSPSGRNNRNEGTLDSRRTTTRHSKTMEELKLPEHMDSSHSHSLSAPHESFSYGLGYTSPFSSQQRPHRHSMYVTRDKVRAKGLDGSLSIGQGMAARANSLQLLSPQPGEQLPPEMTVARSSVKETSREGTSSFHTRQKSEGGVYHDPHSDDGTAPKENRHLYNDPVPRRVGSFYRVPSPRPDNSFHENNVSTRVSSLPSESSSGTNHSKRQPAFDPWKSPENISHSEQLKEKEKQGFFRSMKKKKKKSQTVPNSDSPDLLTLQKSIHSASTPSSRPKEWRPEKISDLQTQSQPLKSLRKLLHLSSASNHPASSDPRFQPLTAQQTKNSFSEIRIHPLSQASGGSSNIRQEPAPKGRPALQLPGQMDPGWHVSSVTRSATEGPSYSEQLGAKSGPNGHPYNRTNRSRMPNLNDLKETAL

[3] = biological target: kinases (KINOMEscan panel) (Homo sapiens, UniProt P00519, Y253F); conditions: kinase ABL1(Y253F)-phosphorylated; NEW KINOMEscan
[4] = biological target: kinases (KINOMEscan panel) (Homo sapiens, UniProt P07949); conditions: kinase RET; NEW KINOMEscan
[5] = biological target: kinases (KINOMEscan panel) (Homo sapiens, UniProt P10721, V559D); conditions: kinase KIT(V559D); NEW KINOMEscan
[6] = biological target: kinases (KINOMEscan panel) (Homo sapiens, UniProt P29597); conditions: NEW KINOMEscan; for KINOMEscan TYK2(JH1domain-catalytic): kinase TYK2(JH1domain-catalytic)
[7] = biological target: kinases (KINOMEscan panel) (Homo sapiens, UniProt P50750); conditions: kinase CDK9; NEW KINOMEscan
[8] = biological target: T2, kinases (KINOMEscan panel) (Homo sapiens, UniProt Q12851); conditions: kinase MAP4K2; NEW KINOMEscan
T2 sequence (Q12851 1-820): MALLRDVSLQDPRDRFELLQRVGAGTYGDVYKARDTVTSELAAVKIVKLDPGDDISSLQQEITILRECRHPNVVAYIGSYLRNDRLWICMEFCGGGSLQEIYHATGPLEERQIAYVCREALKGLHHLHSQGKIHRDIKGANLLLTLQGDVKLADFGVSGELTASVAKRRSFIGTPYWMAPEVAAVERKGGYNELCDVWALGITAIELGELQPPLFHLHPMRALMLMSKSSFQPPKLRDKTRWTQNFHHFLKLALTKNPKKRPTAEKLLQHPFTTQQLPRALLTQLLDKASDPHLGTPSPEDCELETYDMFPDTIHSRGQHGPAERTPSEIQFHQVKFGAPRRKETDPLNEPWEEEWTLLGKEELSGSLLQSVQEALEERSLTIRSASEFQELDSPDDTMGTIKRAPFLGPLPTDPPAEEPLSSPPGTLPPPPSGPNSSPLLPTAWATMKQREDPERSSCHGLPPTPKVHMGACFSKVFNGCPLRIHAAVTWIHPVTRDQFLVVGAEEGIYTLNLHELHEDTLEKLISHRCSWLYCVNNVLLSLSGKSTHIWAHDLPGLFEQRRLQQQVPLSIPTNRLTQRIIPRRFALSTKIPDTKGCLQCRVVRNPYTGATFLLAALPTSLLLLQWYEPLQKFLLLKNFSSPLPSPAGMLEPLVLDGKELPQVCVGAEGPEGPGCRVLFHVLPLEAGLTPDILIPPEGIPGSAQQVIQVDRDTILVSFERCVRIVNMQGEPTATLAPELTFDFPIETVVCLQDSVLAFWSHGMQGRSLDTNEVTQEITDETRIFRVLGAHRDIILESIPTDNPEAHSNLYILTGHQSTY

[9] = biological target: kinases (KINOMEscan panel) (Homo sapiens, UniProt Q15375); conditions: EPHA7; NEW KINOMEscan
kinases (KINOMEscan panel) (Homo sapiens, UniProt Q15375), sequence (Q15375 28-998): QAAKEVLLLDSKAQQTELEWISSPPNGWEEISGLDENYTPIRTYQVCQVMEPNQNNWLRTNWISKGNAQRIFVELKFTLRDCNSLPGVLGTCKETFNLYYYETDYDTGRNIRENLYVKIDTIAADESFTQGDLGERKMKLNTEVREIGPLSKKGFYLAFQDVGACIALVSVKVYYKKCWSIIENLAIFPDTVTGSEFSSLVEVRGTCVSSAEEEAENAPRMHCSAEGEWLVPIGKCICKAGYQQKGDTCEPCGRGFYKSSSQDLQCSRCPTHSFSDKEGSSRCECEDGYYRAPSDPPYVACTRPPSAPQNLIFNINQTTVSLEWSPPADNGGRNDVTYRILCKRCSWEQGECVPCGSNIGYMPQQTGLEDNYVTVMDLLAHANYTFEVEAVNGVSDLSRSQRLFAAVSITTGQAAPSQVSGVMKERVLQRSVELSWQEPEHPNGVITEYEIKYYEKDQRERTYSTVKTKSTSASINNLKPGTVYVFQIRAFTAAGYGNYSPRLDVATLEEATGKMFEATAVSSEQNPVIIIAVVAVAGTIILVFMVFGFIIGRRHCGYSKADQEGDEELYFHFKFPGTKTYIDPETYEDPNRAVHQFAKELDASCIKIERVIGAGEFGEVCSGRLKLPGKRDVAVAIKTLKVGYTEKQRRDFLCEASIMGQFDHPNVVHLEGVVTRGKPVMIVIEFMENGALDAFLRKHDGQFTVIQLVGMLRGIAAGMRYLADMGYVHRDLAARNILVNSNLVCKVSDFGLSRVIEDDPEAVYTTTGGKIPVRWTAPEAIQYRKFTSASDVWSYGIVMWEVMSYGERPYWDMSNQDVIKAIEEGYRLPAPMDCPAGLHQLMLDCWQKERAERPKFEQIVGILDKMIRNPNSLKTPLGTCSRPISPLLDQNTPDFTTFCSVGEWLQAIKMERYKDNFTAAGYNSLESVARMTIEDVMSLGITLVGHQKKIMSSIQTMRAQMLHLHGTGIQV

kinases (KINOMEscan panel) (Homo sapiens, UniProt P29597), sequence (P29597 whole entry): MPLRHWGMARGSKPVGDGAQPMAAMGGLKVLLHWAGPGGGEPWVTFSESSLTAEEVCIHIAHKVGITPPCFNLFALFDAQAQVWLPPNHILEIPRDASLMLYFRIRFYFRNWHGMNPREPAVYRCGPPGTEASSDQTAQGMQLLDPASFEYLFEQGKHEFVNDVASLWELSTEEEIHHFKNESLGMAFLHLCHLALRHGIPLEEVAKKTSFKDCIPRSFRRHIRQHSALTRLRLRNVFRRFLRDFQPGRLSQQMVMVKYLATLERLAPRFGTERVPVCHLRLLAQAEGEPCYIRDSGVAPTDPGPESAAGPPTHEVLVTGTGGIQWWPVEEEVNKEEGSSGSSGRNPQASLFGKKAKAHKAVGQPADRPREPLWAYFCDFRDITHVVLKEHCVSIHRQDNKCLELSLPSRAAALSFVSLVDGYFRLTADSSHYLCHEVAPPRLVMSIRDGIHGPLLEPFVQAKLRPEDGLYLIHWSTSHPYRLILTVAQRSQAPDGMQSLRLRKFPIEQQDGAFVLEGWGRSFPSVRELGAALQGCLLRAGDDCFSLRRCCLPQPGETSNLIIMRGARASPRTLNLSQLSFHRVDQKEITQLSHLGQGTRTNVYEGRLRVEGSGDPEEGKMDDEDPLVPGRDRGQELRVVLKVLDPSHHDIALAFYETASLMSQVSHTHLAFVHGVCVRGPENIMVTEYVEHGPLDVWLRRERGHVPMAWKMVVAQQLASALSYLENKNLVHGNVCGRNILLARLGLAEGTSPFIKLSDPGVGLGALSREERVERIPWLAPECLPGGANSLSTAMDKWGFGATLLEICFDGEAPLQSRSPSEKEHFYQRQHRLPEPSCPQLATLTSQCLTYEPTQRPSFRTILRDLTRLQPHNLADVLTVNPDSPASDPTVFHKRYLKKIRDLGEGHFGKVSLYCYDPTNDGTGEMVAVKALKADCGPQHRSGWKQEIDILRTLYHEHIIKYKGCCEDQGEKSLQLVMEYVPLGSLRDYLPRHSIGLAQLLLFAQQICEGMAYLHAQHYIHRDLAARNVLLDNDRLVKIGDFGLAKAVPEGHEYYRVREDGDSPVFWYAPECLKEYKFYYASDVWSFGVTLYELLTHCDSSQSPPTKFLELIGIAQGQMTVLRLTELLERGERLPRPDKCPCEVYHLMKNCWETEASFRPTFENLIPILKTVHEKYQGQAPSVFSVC
kinases (KINOMEscan panel) (Homo sapiens, UniProt P07949), sequence (P07949 29-1114): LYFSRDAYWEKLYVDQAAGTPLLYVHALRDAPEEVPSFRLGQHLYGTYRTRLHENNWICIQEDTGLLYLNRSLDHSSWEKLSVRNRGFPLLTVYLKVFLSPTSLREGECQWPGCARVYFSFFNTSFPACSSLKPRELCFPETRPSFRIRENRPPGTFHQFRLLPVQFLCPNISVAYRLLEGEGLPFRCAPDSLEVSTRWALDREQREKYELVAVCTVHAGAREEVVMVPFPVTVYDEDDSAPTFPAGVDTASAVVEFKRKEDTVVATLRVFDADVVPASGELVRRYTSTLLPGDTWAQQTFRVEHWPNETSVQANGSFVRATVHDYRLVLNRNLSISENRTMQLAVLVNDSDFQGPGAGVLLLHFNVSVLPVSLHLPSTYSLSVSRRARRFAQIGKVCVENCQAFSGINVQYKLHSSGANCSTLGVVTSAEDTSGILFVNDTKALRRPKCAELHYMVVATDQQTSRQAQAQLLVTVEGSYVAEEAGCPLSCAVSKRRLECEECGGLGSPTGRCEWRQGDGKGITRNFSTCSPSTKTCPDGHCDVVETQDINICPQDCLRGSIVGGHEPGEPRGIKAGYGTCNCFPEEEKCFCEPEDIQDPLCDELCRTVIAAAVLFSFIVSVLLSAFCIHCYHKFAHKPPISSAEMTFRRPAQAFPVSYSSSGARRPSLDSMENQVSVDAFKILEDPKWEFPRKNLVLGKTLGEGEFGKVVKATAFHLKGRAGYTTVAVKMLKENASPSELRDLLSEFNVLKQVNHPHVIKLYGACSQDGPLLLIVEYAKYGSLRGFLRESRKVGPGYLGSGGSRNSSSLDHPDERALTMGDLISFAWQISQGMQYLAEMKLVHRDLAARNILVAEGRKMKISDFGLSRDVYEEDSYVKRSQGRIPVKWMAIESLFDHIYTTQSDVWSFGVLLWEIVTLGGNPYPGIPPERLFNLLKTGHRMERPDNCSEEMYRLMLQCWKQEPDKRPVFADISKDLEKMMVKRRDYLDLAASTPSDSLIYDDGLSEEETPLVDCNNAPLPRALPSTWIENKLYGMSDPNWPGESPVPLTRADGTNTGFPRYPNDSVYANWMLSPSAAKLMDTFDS
kinases (KINOMEscan panel) (Homo sapiens, UniProt P10721, V559D), sequence (P10721 26-976 V559D): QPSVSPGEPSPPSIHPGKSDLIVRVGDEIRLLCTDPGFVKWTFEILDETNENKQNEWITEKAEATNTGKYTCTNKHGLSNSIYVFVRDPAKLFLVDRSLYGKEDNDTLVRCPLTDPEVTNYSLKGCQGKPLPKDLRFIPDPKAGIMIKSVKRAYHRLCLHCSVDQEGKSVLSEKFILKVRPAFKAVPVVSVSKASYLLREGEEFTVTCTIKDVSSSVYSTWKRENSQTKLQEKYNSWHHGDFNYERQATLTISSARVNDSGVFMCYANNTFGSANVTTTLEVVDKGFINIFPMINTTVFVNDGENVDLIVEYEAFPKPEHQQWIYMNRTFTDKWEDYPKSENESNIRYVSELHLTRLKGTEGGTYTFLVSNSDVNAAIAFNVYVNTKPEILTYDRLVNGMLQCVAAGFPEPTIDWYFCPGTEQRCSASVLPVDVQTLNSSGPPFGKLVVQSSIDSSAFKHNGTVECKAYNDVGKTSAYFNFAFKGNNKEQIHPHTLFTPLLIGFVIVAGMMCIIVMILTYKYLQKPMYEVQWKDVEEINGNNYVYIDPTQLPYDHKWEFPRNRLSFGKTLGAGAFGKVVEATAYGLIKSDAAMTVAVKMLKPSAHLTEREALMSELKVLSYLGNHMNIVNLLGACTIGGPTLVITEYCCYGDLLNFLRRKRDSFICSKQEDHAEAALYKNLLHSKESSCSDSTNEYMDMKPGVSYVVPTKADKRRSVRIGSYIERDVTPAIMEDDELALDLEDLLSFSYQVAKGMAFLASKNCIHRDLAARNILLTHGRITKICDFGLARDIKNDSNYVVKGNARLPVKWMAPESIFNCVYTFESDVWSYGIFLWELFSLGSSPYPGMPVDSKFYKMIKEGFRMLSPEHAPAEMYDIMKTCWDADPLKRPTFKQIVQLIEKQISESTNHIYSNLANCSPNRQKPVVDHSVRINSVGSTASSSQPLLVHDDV
kinases (KINOMEscan panel) (Homo sapiens, UniProt O75914), sequence (O75914 whole entry): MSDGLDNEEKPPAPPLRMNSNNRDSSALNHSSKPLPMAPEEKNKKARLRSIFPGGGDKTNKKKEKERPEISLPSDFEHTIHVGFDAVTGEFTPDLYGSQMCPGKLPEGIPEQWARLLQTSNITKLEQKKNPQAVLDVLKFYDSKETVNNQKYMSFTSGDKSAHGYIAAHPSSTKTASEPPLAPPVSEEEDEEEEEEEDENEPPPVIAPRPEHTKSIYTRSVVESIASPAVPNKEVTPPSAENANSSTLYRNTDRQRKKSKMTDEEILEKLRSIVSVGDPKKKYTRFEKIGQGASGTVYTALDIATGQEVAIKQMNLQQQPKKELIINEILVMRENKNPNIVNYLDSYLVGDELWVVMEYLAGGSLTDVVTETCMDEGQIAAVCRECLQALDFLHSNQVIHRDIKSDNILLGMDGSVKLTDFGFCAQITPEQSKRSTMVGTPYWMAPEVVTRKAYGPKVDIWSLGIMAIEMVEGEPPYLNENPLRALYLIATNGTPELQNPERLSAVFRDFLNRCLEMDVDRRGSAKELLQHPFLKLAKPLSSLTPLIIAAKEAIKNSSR

SMILES	KINOMEscan PAK3 [1]	KINOMEscan CDKL5 [2]	KINOMEscan ABL1(Y253F)-phosphorylated [3]	KINOMEscan RET [4]	KINOMEscan KIT(V559D) [5]	KINOMEscan TYK2(JH2domain-pseudokinase) [6]	KINOMEscan TYK2(JH1domain-catalytic) [6]	KINOMEscan CDK9 [7]	KINOMEscan MAP4K2 [8]	KINOMEscan EPHA7 [9]
Cc1cccc(-c2nc(N(C)c3ccc4ncsc4c3)c3ccccc3n2)n1 [NK-161]	17	3	0	0	7	12	0	4	6	0
Cc1cccc(-c2nc(Nc3ccc4nn(C)cc4c3)c3ccccc3n2)n1 [NK167]	12	0	0	0	15	0	0	8	0	0
